Assay results as given in ChEMBL document CHEMBL1201862, “PubChem BioAssay data set” (2004).
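Growth conditions: 96-well plates. Treatment: test compound, 48 hours, 5 concentrations. Analysis: linear interpolation between bracketing concentrations; unreached endpoints set to highest concentration. GI50 = concentration required for 50% inhibition of growth.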 The source made the active and inactive calls. Rule as the data show it: active = GI50 up to about 1.1 µM and inactive = higher.

Tests used:
Assay in all cases: NCI tumour cell line growth inhibition, 48 h
TK-10 = test system: TK-10
NCI-H23 = test system: NCI-H23
A549 = test system: A549
KM12 = test system: KM12
786-0 = test system: 786-0
ACHN = test system: ACHN
SF-295 = test system: SF-295
EKVX = test system: EKVX
SW-620 = test system: SW-620
HT-29 = test system: HT-29
SK-MEL-5 = test system: SK-MEL-5
UACC-62 = test system: UACC-62
LOX IMVI = test system: LOX IMVI
SK-MEL-28 = test system: SK-MEL-28
RXF 393 = test system: RXF 393
NCI-H460 = test system: NCI-H460
NCI-H522 = test system: NCI-H522
BT-549 = test system: BT-549
PC-3 = test system: PC-3
Hs-578T = test system: Hs-578T

Structure (SMILES): C[n+]1c2ccccc2cc2c(CNC(CCCNC(=N)N)C(=O)O)cccc21 (stereo unspecified)
- GI50 (TK-10): 0.67 µM (active)
- GI50 (NCI-H23): 3.14 µM (inactive)
- GI50 (A549): 3.05 µM (inactive)
- GI50 (KM12): 0.448 µM (active)
- GI50 (786-0): 0.75 µM (active)
- GI50 (ACHN): 0.594 µM (active)
- GI50 (SF-295): 3.17 µM (inactive)
- GI50 (EKVX): 4.66 µM (inactive)
- GI50 (SW-620): 0.378 µM (active)
- GI50 (HT-29): 0.303 µM (active)
- GI50 (SK-MEL-5): 2.21 µM (inactive)
- GI50 (UACC-62): 0.643 µM (active)
- GI50 (LOX IMVI): 0.493 µM (active)
- GI50 (SK-MEL-28): 1.34 µM (inactive)
- GI50 (RXF 393): 0.0458 µM (active)
- GI50 (NCI-H460): 1.9 µM (inactive)
- GI50 (NCI-H522): 1.4 µM (inactive)

Structure (SMILES): Cc1ccc(/N=N/c2c(C)c(C#N)c(=S)n(C3OC(CO)C(O)C(O)C3O)c2-c2ccccc2)cc1 (stereo unspecified)
- GI50 (BT-549): 19.6 µM (inactive)
- GI50 (PC-3): 15 µM (inactive)
- GI50 (TK-10): 29.5 µM (inactive)
- GI50 (NCI-H23): 16.5 µM (inactive)
- GI50 (A549): 32 µM (inactive)
- GI50 (KM12): 19 µM (inactive)
- GI50 (786-0): 21 µM (inactive)
- GI50 (ACHN): 30.7 µM (inactive)
- GI50 (SF-295): 20.5 µM (inactive)
- GI50 (SW-620): 15.6 µM (inactive)
- GI50 (HT-29): 27.7 µM (inactive)
- GI50 (SK-MEL-5): 11.2 µM (inactive)
- GI50 (UACC-62): 14.5 µM (inactive)
- GI50 (LOX IMVI): 17.2 µM (inactive)
- GI50 (SK-MEL-28): 16.5 µM (inactive)
- GI50 (RXF 393): 17.8 µM (inactive)
- GI50 (NCI-H460): 27.7 µM (inactive)
- GI50 (Hs-578T): 24.5 µM (inactive)

Structure (SMILES): Cc1c2c(Cl)c3c(c(Cl)c2c(C)c2c(Cl)c4c(c(Cl)c12)C(c1ccccc1)(c1ccccc1)C4(c1ccccc1)c1ccccc1)C(c1ccccc1)(c1ccccc1)C3(c1ccccc1)c1ccccc1
- GI50 (BT-549): > 100 µM (inactive)
- GI50 (PC-3): > 100 µM (inactive)
- GI50 (TK-10): > 100 µM (inactive)
- GI50 (NCI-H23): > 100 µM (inactive)
- GI50 (A549): > 100 µM (inactive)
- GI50 (KM12): > 100 µM (inactive)
- GI50 (786-0): > 100 µM (inactive)
- GI50 (ACHN): > 100 µM (inactive)
- GI50 (SF-295): > 100 µM (inactive)
- GI50 (EKVX): > 100 µM (inactive)
- GI50 (SW-620): > 100 µM (inactive)
- GI50 (HT-29): > 100 µM (inactive)
- GI50 (SK-MEL-5): > 100 µM (inactive)
- GI50 (UACC-62): > 100 µM (inactive)
- GI50 (LOX IMVI): > 100 µM (inactive)
- GI50 (SK-MEL-28): > 100 µM (inactive)
- GI50 (RXF 393): > 100 µM (inactive)
- GI50 (NCI-H460): > 100 µM (inactive)
- GI50 (NCI-H522): > 100 µM (inactive)

Structure (SMILES): Sc1nnc(-c2ccnc(-c3nnc(S)[nH]3)c2)[nH]1
- GI50 (TK-10): > 100 µM (inactive)
- GI50 (NCI-H23): > 100 µM (inactive)
- GI50 (A549): > 100 µM (inactive)
- GI50 (KM12): > 100 µM (inactive)
- GI50 (786-0): > 100 µM (inactive)
- GI50 (ACHN): > 100 µM (inactive)
- GI50 (SF-295): > 100 µM (inactive)
- GI50 (EKVX): > 100 µM (inactive)
- GI50 (SW-620): > 100 µM (inactive)
- GI50 (HT-29): > 100 µM (inactive)
- GI50 (SK-MEL-5): > 100 µM (inactive)
- GI50 (UACC-62): > 100 µM (inactive)
- GI50 (LOX IMVI): > 100 µM (inactive)
- GI50 (SK-MEL-28): > 100 µM (inactive)
- GI50 (RXF 393): > 100 µM (inactive)
- GI50 (NCI-H460): > 100 µM (inactive)
- GI50 (NCI-H522): > 100 µM (inactive)

Structure (SMILES): CSc1nc(O)c2cn(Cc3ccccc3)nc2n1
- GI50 (TK-10): > 61.7 µM (inactive)
- GI50 (NCI-H23): > 100 µM (inactive)
- GI50 (A549): > 100 µM (inactive)
- GI50 (KM12): > 100 µM (inactive)
- GI50 (786-0): > 100 µM (inactive)
- GI50 (ACHN): > 76.4 µM (inactive)
- GI50 (SF-295): > 100 µM (inactive)
- GI50 (EKVX): > 100 µM (inactive)
- GI50 (SW-620): > 100 µM (inactive)
- GI50 (HT-29): 98.2 µM (inactive)
- GI50 (SK-MEL-5): > 100 µM (inactive)
- GI50 (UACC-62): > 100 µM (inactive)
- GI50 (LOX IMVI): > 100 µM (inactive)
- GI50 (SK-MEL-28): > 100 µM (inactive)
- GI50 (RXF 393): > 91 µM (inactive)
- GI50 (NCI-H460): > 100 µM (inactive)
- GI50 (NCI-H522): > 100 µM (inactive)

Structure (SMILES): CN1CCN(C(=S)N(C)C(=O)c2ccco2)CC1
- GI50 (BT-549): > 100 µM (inactive)
- GI50 (TK-10): > 100 µM (inactive)
- GI50 (NCI-H23): > 100 µM (inactive)
- GI50 (A549): > 100 µM (inactive)
- GI50 (KM12): > 100 µM (inactive)
- GI50 (786-0): > 100 µM (inactive)
- GI50 (ACHN): > 100 µM (inactive)
- GI50 (SF-295): > 100 µM (inactive)
- GI50 (SW-620): > 100 µM (inactive)
- GI50 (HT-29): > 100 µM (inactive)
- GI50 (SK-MEL-5): > 100 µM (inactive)
- GI50 (UACC-62): > 100 µM (inactive)
- GI50 (LOX IMVI): > 100 µM (inactive)
- GI50 (RXF 393): > 100 µM (inactive)
- GI50 (NCI-H460): > 100 µM (inactive)
- GI50 (Hs-578T): > 100 µM (inactive)
- GI50 (NCI-H522): > 100 µM (inactive)

Structure (SMILES): CNc1cc(N)ccc1C(=O)N1CCC[C@H]1CO
- GI50 (PC-3): > 100 µM (inactive)
- GI50 (TK-10): > 100 µM (inactive)
- GI50 (A549): > 100 µM (inactive)
- GI50 (KM12): > 100 µM (inactive)
- GI50 (786-0): > 100 µM (inactive)
- GI50 (ACHN): > 100 µM (inactive)
- GI50 (SF-295): > 100 µM (inactive)
- GI50 (EKVX): > 100 µM (inactive)
- GI50 (SW-620): > 100 µM (inactive)
- GI50 (HT-29): > 100 µM (inactive)
- GI50 (UACC-62): > 100 µM (inactive)
- GI50 (LOX IMVI): > 100 µM (inactive)
- GI50 (SK-MEL-28): > 100 µM (inactive)
- GI50 (NCI-H460): > 100 µM (inactive)
- GI50 (Hs-578T): > 100 µM (inactive)
- GI50 (NCI-H522): > 100 µM (inactive)
